Measured values published in patent US20230076415A1, “METHODS AND COMPOSITIONS FOR TREATING MELANOMA” (INSERM (INSTITUT NATIONAL DE LA SANTÉ ET DE LA RECHERCHE …, priority 2020, published 2023).

Legend:
[1] = test system: A375 cells; experiment: Cell death by Annexin V-FITC/DAPI flow cytometry; assay type: cell-based, human; conditions: 8TQ 0.27, 0.9, 3 μM, 72h
Experimental: FIG. 2. PSMD14 depletion has a potent cytotoxic effect on melanoma cells. A) Experimental validation of the siDUB screening on melanoma cell proliferation. 501Mel and A375 melanoma cells were plated 10,000 cells/well in a 24-well plate and transfected with a control siRNA (siCTRL) or 3 different siRNA sequences targeting PSMD14 (siPSMD14 #1, #2 and #3). Cell confluence was imaged for 48 h using the IncuCyte Zoom live imaging system. Curves represent normalized cell proliferation of each siRNA relative to siCTRL. Data are the mean±SEM (n=3). ***P<0.001, 2-way ANOVA analysis. B) Colony survival analysis after PSMD14 depletion (siPSMD14 #1, #2 and #3) compared to control siRNA (siCTRL). 501Mel and A375 cells were transfected with siRNAs, re-seeded at 2,000 cells/well and grown for 1 week. Colonies were stained with crystal violet. […] Box plots show the mean±SEM of crystal violet quantification relative to siCTRL (n=3, ***P<0.001.). […] After 72h, cells were labeled with Annexin V-FITC and DAPI and analysed by flow cytometry. […]
FIG. 3. […] Right, cell viability was quantified on lysates by analyzing crystal violet staining at 595 nm. […] After 72h, cells were stained with Annexin V-FITC and DAPI and analysed by flow cytometry. […] The calculated mean IC50±sem is shown. […] After 72h, cells were labeled and analyzed as in b). The corresponding IC50 of 8TQ was determined by measuring cell viability. […]

[2] = test system: A375Riv human melanoma cells; experiment: BRAFi-resistant A375Riv xenografts; assay type: in vivo; conditions: A375Riv xenografts in nude mice, 8TQ 10 mg/kg i.p. vs vehicle
Experimental: (§1) FIG. 5. Targeting PSMD14 overcomes resistance to MAPK pathway inhibition. A) Melanoma cell lines resistant to BRAFi (A375RIV, M229R, M238R and M249R) or double resistant to BRAFi and MEKi (A375DDR) were transfected with siCTRL or siPSMD14 #1. After 72h, cell colonies were stained with crystal violet and the absorbance at 595 nm was measured. Box plots show the upper/lower quartile and the median with whiskers from min to max values (n=3, ***P<0.001). B) The above panel of melanoma cells was treated with increasing doses of 8TQ. After 72h, cells were labeled and analyzed. The corresponding IC50 of 8TQ was determined. Box plots indicate the upper/lower quartile and the median with whiskers from min to max values from 2 experiments performed in triplicate. C) 1×10^6 A375Riv human melanoma cells were implanted into both flanks of nude mice. After 2 days, mice were injected i.p every day with 8TQ (10 mg/kg) or vehicle. The tumor size was measured with a caliper and the tumor volume was determined. Data shown are mean±SD of tumor volume (n=12; ***, ***P<0.001, 2way ANOVA).
All mouse experiments were carried out in accordance with the Institutional Animal Care and the local ethics committee (CIEPAL-Azur agreement NCE/2018-509). […] The tumor size was measured with a caliper and the tumor volume was determined using the formula: Volume=(length×Width2)/2. […]

[3] = test system: human (M099, M029, Sbcl2, 501Mel, WM9 and MEWO) and murine (Yumm1.7 and MaNras) melanoma cell lines; experiment: IC50 of 8TQ on a collection of melanoma cell lines and short-term cultures; assay type: cell-based
Experimental: FIG. 3. Pharmacological inhibition of PSMD14 impairs melanoma cell survival. A) Survival analysis performed on A375 cells treated with vehicle or increasing doses of 8TQ (0.27, 0.9, 3 μM). After 72h, cells were stained with crystal violet. Right, cell viability was quantified on lysates by analyzing crystal violet staining at 595 nm. Histograms represent the mean±SD of three independent experiments in duplicate (***P<0.001; ns, non significant). B) Effect of PSMD14 inhibition on melanoma cell viability. A375 cells were treated with vehicle or increasing doses of 8TQ (0.27, 0.9, 3 μM). After 72h, cells were stained with Annexin V-FITC and DAPI and analysed by flow cytometry. Histograms show the percentage of cell death (Annexin V and DAPI positive cells) (mean±SEM, n=3). The calculated mean IC50±sem is shown. (** P<0.005, ***P<0.001). C) A subset of melanoma cells was treated with increasing doses of 8TQ. After 72h, cells were labeled and analyzed as in b). The corresponding IC50 of 8TQ was determined by measuring cell viability. […]
(§2) After 24 to 48h of treatment, cell viability was evaluated by flow cytometry following staining with Annexin-V-FITC and propidium iodide (PI) (ThermoFisher Scientific) as previously described (27). The percentage of dead cells (Annexin-V-FITC+ and PI+ cells) was then determined. […]

[4] = test system: A375 cells; experiment: Western blot analysis of A375 cells; assay type: cell-based, human; conditions: data not shown
Excerpt: Culture reagents and DAPI were purchased from Thermo Fischer Scientific. Vemurafenib (PLX4032) and Trametinib (GSK1120212) were from Selleckchem. Chemicals, cycloheximide (CHX), 8TQ and puromycin were from Merck Millipore. The antibodies used for western blotting were as follow: PSMD14 (Generon), HSP90, p53 (Santa Cruz Biotechnology), K48-linkage specific polyubiquitin (D9D5), p21, CDK2, PARP, cleaved caspase 3, phospho-Thr202/Tyr204 Erk1/2 (Cell Signaling Technology), phospho-Ser139 H2AX (BioLegend). Alexa Fluor TexasRed-conjugated secondary antibodies were from ThermoFisher Scientific.

[5] = test system: A375RIV, M229R, M238R, M249R and A375DDR melanoma cells; experiment: Viability of BRAFi- and BRAFi/MEKi-resistant melanoma cells treated with 8TQ; assay type: cell-based, human
Experimental: as §1, §2

[6] = test system: A375 cells; experiment: Survival analysis (crystal violet staining) of A375 cells treated with 8TQ; assay type: cell-based; conditions: Homo sapiens, A-375, increasing doses of 8TQ, 72h, read-out: calculated IC50 for 8TQ
Experimental: FIG. 3. Pharmacological inhibition of PSMD14 impairs melanoma cell survival. A) Survival analysis performed on A375 cells treated with vehicle or increasing doses of 8TQ (0.27, 0.9, 3 μM). After 72h, cells were stained with crystal violet. Right, cell viability was quantified on lysates by analyzing crystal violet staining at 595 nm. Histograms represent the mean±SD of three independent experiments in duplicate (***P<0.001; ns, non significant). B) Effect of PSMD14 inhibition on melanoma cell viability. A375 cells were treated with vehicle or increasing doses of 8TQ (0.27, 0.9, 3 μM). After 72h, cells were stained with Annexin V-FITC and DAPI and analysed by flow cytometry. Histograms show the percentage of cell death (Annexin V and DAPI positive cells) (mean±SEM, n=3). The calculated mean IC50±sem is shown. (** P<0.005, ***P<0.001). C) A subset of melanoma cells was treated with increasing doses of 8TQ. After 72h, cells were labeled and analyzed as in b). The corresponding IC50 of 8TQ was determined by measuring cell viability. Box plots indicating the upper/lower quartile and the median with whiskers from min to max values from 2 experiments performed in triplicate.
After treatment, cells were fixed in PFA 3% during 20 min, washed with PBS and stained with crystal violet 0.4% in ethanol 20% for 30 min. After washing, crystal violet was solubilized from fixed cells. […]

[7] = test system: 501Mel and A375 melanoma cells; experiment: Phosphorylated H2AX after 8TQ; assay type: cell-based, human; conditions: increased doses of 8TQ, 48h, data not shown
Experimental: For phospho-H2AX (pH2AX) foci staining, cells grown on coverslips or culture dishes were fixed with 4% paraformaldehyde and permeabilized in 50 mM Tris-HCl, pH 7.4, 150 mM NaCl, 0.3% Triton X-100 for 1 h at 4° C. Cells were then blocked in 50 mM Tris-HCl, pH 7.4, 150 mM NaCl, 0.03% Triton X-100, 1% BSA for 1 h at 37° C., and stained with anti-phospho-Ser139 H2AX (1:1000, Merck Millipore #05-636) at 4° C. overnight. After extensive washings, cells were stained with Alexa Fluor TexasRed-conjugated secondary antibodies and 10 μg/ml DAPI for 1 h at room temperature. After washing, cells were mounted with ProLong Gold Antifade Mounting Oil (Thermo Fischer Scientific). The percentage of cells positive for phospho-H2AX foci was determined by analyzing 200 randomly chosen cells and the foci-positive cells were defined as nuclei with at least one large focus or a granular pattern of fluorescence.

[8] = test system: MaNRas murine melanoma cells (NRasQ61K); experiment: MaNRas syngeneic melanoma model; assay type: in vivo; conditions: 8TQ 10 mg/kg i.p. vs vehicle, C57Bl/6J mice
Experimental: (§3) FIG. 4. The PSMD14 inhibitor 8TQ inhibits tumor growth in melanoma syngeneic models. A) 2×10^5 murine melanoma cells Yumm1.7 (derived from BrafV600E/Pten null/cdkn2a null mice) were subcutaneously inoculated into both flanks of 6-week old C57Bl/6J female mice. After one week, mice were injected i.p 3 times per week with 8TQ (10 mg/kg) or vehicle. The tumor size was measured with a caliper and the tumor volume was determined. Data shown are mean±SD of tumor volume (n=12; ***, ***P<0.001, 2way ANOVA). B) 4×105 murine melanoma MaNRas (NRasQ61K) were subcutaneously injected into both flanks of 6-week old C57Bl/6J female mice. After two weeks, mice were injected i.p every two days with 8TQ (10 mg/kg) or vehicle. The tumor size was measured with a caliper and the tumor volume was determined. Data shown are mean±sd of tumor volume (n=12; ***, ***P<0.001, 2way ANOVA).
All mouse experiments were carried out in accordance with the Institutional Animal Care and the local ethics committee (CIEPAL-Azur agreement NCE/2018-509). The animals were maintained on a 12h light/dark cycle in a temperature-controlled facility at 22° C. and were provided with free access to food (standard laboratory chow diet from UAR). […] The tumor size was measured with a caliper and the tumor volume was determined using the formula: Volume=(length×Width2)/2. […]

[9] = test system: Yumm1.7 murine melanoma cells (BrafV600E/Pten null/cdkn2a null); experiment: Yumm1.7 syngeneic melanoma model; assay type: in vivo, C57Bl/6J mice
Experimental: as §3
Slices (4 μm) from paraffin-embedded tumors sections were Tissue sections were processed for dewaxing, rehydration and antigenic heat unmasking using the PT Module Lab Vision™ (ThermoFisher Scientific) according to the manufacturer's instructions. Tissue sections were then labelled with primary antibodies diluted in 1% BSA (wt/vol) followed by standard avidin-biotin-peroxidase staining (Vector Laboratories) using the automated staining system Myreva SS30 (Microm Microtech, France). Primary antibodies were as follows: phospho-H2AX (Merck Millipore), Ki67 (Agilent Dako), cleaved caspase 3 (Cell Signaling Technology).
All mouse experiments were carried out in accordance with the Institutional Animal Care and the local ethics committee (CIEPAL-Azur agreement NCE/2018-509). The animals were maintained on a 12h light/dark cycle in a temperature-controlled facility at 22° C. and were provided with free access to food (standard laboratory chow diet from UAR). For melanoma xenografts, 2×106 BRAF inhibitor resistant A375Riv human melanoma cells were subcutaneously implanted into both flanks of 6 week old athymic nude nu/nu female mice (Envigo). For melanoma syngeneic models, 2 to 4 105 of Yumm1.7 or MaNras murine melanoma cells were subcutaneously inoculated into 6 week old C57Bl/6J female mice (Envigo). When tumors became palpable (0.05 to 0.1 cm3), mice were injected intraperitoneally once every other day with vehicle or 10 mgkg-1 8TQ in a 90:9:1 (v/v/v) mixture of Labrafil, dimethylacetamide, and Tween 80. The tumor size was measured with a caliper and the tumor volume was determined using the formula: Volume=(length×Width2)/2. At the end of the experiment, mice were sacrificed and tumors dissected, weighed, fixed and embedded in paraffin for IHC analysis.

[10] = Yumm1.7 tumors, vs vehicle, data not shown
[11] = immunostaining on tumor sections, data not shown

Sc1cccc2cccnc12 [8TQ, quinoline-8-thiol]
apoptotic cell death (Annexin V-FITC/DAPI staining) [1]: dose-dependent increase
tumor development [2]: dramatically abrogated
IC50 ([3]; collection of human and murine melanoma cell lines and short-term cultures, 72h): 250 to 750 nM
melanoma cell viability ([3]; irrespective of the mutational status or the disease stage): markedly inhibited
accumulation of poly-ubiquitinated proteins [4]: induced the accumulation
expression of cleaved PARP [4]: induced
expression of cleaved caspase-3 [4]: induced
viability of BRAFi- and BRAFi/MEKi-resistant cells ([5]; doses of 8TQ, 72h): potently decreased
IC50 of 8TQ ([5]; resistant cells compared with parental counterparts): in the same μM range
IC50 [6]: 660 nM
expression of phosphorylated H2AX [7]: elevated expression
MaNRAS tumor growth [8]: significantly decreased
Yumm1.7 tumor growth ([9]; 8TQ 10 mg/kg i.p. vs vehicle, C57Bl/6J mice): significantly decreased
tumor size at the experiment endpoint [9, 10]: markedly reduced
tumor weight at the experiment endpoint [9, 10]: markedly reduced
staining of the apoptosis marker cleaved caspase 3 [9, 11]: increased staining
staining of the cell proliferation marker Ki67 [9, 11]: decreased staining
